In article PMC12184107 (Cell Cycle, 2024):
pEC50: −log10 of the molar value.

Legend:
LGR5 = details: gastric cancer, phage display; cited from earlier work
[1] = molecular target: T1, recombinant human LGR5 (leucine-rich repeat-containing G-protein-coupled receptor 5) (human) (UniProt O75473); assay: ELISA
T1 sequence (O75473 whole entry, looked up): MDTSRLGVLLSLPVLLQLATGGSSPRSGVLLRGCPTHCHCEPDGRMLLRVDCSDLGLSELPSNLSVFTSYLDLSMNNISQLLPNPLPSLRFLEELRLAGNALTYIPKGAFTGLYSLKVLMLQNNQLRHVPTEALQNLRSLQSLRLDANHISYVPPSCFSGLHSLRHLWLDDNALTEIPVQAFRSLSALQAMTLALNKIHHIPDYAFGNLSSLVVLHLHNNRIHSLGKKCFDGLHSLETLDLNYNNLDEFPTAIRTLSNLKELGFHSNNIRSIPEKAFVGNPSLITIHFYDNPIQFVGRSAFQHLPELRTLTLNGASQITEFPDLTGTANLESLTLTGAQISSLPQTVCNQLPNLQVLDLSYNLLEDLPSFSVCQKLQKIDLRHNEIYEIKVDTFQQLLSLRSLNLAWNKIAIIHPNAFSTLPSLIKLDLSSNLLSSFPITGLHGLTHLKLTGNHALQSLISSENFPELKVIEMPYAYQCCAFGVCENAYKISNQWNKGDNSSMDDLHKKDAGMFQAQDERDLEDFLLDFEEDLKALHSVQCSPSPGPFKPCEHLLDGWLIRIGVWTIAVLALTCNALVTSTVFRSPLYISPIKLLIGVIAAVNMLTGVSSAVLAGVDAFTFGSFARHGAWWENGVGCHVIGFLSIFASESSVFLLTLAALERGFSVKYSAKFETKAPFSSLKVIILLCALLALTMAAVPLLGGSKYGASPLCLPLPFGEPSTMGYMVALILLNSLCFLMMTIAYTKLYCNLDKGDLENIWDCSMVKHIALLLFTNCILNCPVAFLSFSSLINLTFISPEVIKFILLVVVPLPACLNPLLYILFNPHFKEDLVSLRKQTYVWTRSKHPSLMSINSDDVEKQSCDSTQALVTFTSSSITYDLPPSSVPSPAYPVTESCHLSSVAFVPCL

## IPQILSI
LGR5
  LGR5 binding: possessed LGR5 binding capabilities

## recombinant human R-spondin 1 (from UniProt Q2MKA7 21-263) (ligand)
[1]
  pEC50: 10.40
